Measurements taken from US20130203662A1, “Mini-Hepcidin Peptides and Methods of Using Thereof” (priority 2008, published 2013).
Values belong to the compound of their own block, whether it stands above or below them. Square brackets hold non-standard residues; d marks the D form. Ends that are not written are not given here. Peptide text beside a SMILES is read from it. * marks the point of attachment. PEG12 = NCCOCCOCCOCCOCCOCCOCCOCCOCCOCCOCCOCCOCCC(=O)O; Bip = N[C@@H](Cc1ccc(-c2ccccc2)cc1)C(=O)O; Oic = O=C(O)[C@@H]1C[C@@H]2CCCC[C@@H]2N1; Dip = N[C@H](C(=O)O)C(c1ccccc1)c1ccccc1; 1Nal = N[C@@H](Cc1cccc2ccccc12)C(=O)O; Palmitoyl = CCCCCCCCCCCCCCCC(=O)*; β3hF = N[C@H](CC(=O)O)Cc1ccccc1; β3hP = O=C(O)C[C@@H]1CCCN1; Dap = NC[C@H](N)C(=O)O; tBu = CC(C)(C)*

How the values were obtained:
C57/B16J mice = test: Serum iron assay in mice after peptide administration; assay type: in vivo
Description: Serum iron assay. The decrease in serum iron after peptide administration is the principal measure of hepcidin activity. Thus, as provided herein, the hepcidin activity of selected peptides of the present invention were assayed in vivo by measuring serum iron in test subjects. […] Two weeks before the experiment, the mice were switched to a diet containing about 2-4 ppm iron (Harlan Teklad, Indianapolis, Ind.) in order to suppress endogenous hepcidin. Peptide stocks were diluted to desired concentrations in sterile phosphate buffered saline (PBS) or other diluents as described next. […] Mice were sacrificed 4 hours later, blood was collected by cardiac puncture, and serum was separated using MICROTAINER tubes (Becton Dickinson, Franklin Lakes, N.J.). Serum iron was determined by using a colorimetric assay (Diagnostic Chemicals, Oxford, Conn.), which was modified for the microplate format so that 10 μl serum was used per measurement. The results were expressed as the percentage of decrease in serum iron when compared with the average value of serum iron levels in PBS-treated mice.

[1] = target: T1, ferroportin fused to green fluorescent protein (ECR293/Fpn-GFP cells) (Mus musculus, UniProt Q9JHI9); test: Flow cytometry of ferroportin-GFP internalization and degradation in ECR293/Fpn-GFP cells; assay type: cell-based; settings: for DC50 / EC50: concentration eliciting 50% of maximal loss of fluorescence generated by reference Hep25, 24 hours; for DC50: read-out: EC50 (the source's name); for relative hepcidin activity of substitutions in Hep25: Hep25 variants, FIG. 1, 2A, 2B
T1 sequence (Q9JHI9 1-570): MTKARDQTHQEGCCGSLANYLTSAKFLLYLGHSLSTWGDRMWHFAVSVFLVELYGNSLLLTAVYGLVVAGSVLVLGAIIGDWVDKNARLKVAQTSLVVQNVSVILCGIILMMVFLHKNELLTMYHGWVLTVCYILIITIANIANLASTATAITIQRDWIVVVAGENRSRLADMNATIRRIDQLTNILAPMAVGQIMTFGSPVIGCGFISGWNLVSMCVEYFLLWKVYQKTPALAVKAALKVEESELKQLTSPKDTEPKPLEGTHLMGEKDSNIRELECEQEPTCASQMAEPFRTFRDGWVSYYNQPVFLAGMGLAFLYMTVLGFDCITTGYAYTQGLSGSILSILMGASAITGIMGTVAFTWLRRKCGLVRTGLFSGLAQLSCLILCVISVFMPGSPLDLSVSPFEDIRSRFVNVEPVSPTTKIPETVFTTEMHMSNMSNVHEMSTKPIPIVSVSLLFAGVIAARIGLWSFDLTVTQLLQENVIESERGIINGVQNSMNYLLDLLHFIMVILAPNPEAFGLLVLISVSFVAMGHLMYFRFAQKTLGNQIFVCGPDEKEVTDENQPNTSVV
Description: In vitro activity may be measured by the dose-dependent loss of fluorescence of cells engineered to display ferroportin fused to green fluorescent protein as in Nemeth et al. (2006) Blood 107:328-33. […]
FLOW CYTOMETRY. The activity of peptides of the present invention was measured by flow cytometry as previously described. See Nemeth et al. (2006) Blood 107:328-333, which is herein incorporated by reference. ECR293/Fpn-GFP, a cell line stably transfected with a ponasterone-inducible ferroportin construct tagged at the C-terminus with green fluorescent protein was used. See Nemeth et al. (2004) Science 306:2090-2093, which is herein incorporated by reference. Briefly, the cells were plated on poly-D-lysine coated plates in the presence of 20 μM FAC, with or without 10 μM ponasterone. After 24 hours, ponasterone was washed off, and cells were treated with peptides for 24 hours. Cells were then trypsinized and resuspended at 1×10^6 cells/ml, and the intensity of green fluorescence was analyzed by flow cytometry. […] Cells not induced with ponasterone to express Fpn-GFP were used to establish a gate to exclude background fluorescence. Cells induced with ponasterone, but not treated with any peptides, were used as the positive control. Each peptide was tested over the range of concentrations (0, 0.01, 0.03, 0.1, 0.3, 1, 3 and 10 μM). Each peptide treatment was repeated independently 3 to 6 times.

[2] = i.p., 20 nmoles in liposomal solution, 4 hours
[3] = flow-cytometry assay of ferroportin-GFP internalization, FIG. 3

DC50 [1]: 150 nM
Compound: CC[C@H](C)[C@H](NC(=O)[C@H](CS)NC(=O)[C@@H](NC(=O)[C@@H]1CCCN1C(=O)[C@H](Cc1ccccc1)NC(=O)[C@H](Cc1c[nH]cn1)NC(=O)[C@@H](NC(=O)[C@@H](N)CC(=O)O)[C@@H](C)O)[C@@H](C)CC)C(=O)N[C@@H](Cc1ccc(-c2ccccc2)cc1)C(N)=O [F9Bip] (H-DTHFPICI[Bip]-NH2; N-terminus assumed)

DC50 [1]: 500 nM
Compound: CC[C@H](C)[C@H](NC(=O)[C@H](CS)NC(=O)[C@@H](NC(=O)[C@@H]1CCCN1C(=O)[C@H](Cc1ccccc1)NC(=O)[C@H](Cc1c[nH]cn1)NC(=O)[C@@H](NC(=O)[C@@H](N)CC(=O)O)[C@@H](C)O)[C@@H](C)CC)C(=O)N[C@H](CC(=O)N1CCC[C@@H]1C(=O)N1CCC[C@H]1CC(=O)N[C@@H](CCCCN)C(N)=O)Cc1ccccc1 [Pr21] (H-DTHFPICI[β3hF][dP][β3hP]K-NH2)

DC50 [1]: 2000 nM
Compound: DTHFPICI-NH2 [Hep8]

DC50 [1]: 700 nM
Compound: CC[C@H](C)[C@H](NC(=O)[C@@H](NC(=O)[C@@H](NC(=O)[C@@H]1CCCN1C(=O)[C@H](Cc1ccccc1)NC(=O)[C@H](Cc1c[nH]cn1)NC(=O)[C@@H](NC(=O)[C@@H](N)CC(=O)O)[C@@H](C)O)[C@@H](C)CC)C(C)(C)S)C(=O)N[C@@H](Cc1ccccc1)C(N)=O [Pen]

hepcidin activity of mini-hepcidins relative to Hep25 ([1]; FIG. 3 and FIG. 4): quite active
DC50 [1]: 100 nM
potency relative to Hep25 on a mass basis (times less potent) [1, 3]: about 4 times
potency relative to Hep25 on a molar basis (times less potent) [1, 3]: about 10 times
Compound: DTHFPIAIFC-NH2 [Hep10]

DC50 [1]: > 10000 nM
Compound: CC[C@H](C)[C@H](NC(=O)[C@H](CSC(C)(C)C)NC(=O)[C@@H](NC(=O)[C@@H]1CCCN1C(=O)[C@H](C)NC(=O)[C@H](Cc1c[nH]cn1)NC(=O)[C@@H](NC(=O)[C@@H](N)CC(=O)O)[C@@H](C)O)[C@@H](C)CC)C(=O)N[C@@H](Cc1ccccc1)C(N)=O [Hep9C7-tBut] (H-DTHAPIC(tBu)IF-NH2)

relative hepcidin activity of substitutions in Hep25 [1]: substantial loss of hepcidin activity
Compound: F4Y: Hep25 with F4 substituted by tyrosine (DTHYPICIFCCGCCHRSKCGMCCKT)

DC50 [1]: 110 nM
Compound: CC[C@H](C)[C@H](NC(=O)[C@H](CS)NC(=O)[C@@H](NC(=O)[C@@H]1CCCN1C(=O)[C@H](Cc1cccc2ccccc12)NC(=O)[C@H](Cc1c[nH]cn1)NC(=O)[C@@H](NC(=O)[C@@H](N)CC(=O)O)[C@@H](C)O)[C@@H](C)CC)C(=O)N[C@@H](Cc1ccccc1)C(N)=O [F4 1Nal] (H-DTH[1Nal]PICIF-NH2; N-terminus assumed)

The next lines start with the compound.

Compound: CCCCCCCCCCCCCCCC(=O)NC[C@H](NC(=O)CCCCCCCCCCCCCCC)C(=O)NCCOCCOCCOCCOCCOCCOCCOCCOCCOCCOCCOCCOCCC(=O)N[C@H](Cc1ccccc1)C(=O)N[C@@H](C(=O)N[C@H](CS)C(=O)N[C@@H](C(=O)N1CCC[C@@H]1C(=O)N[C@H](Cc1ccccc1)C(=O)N[C@H](Cc1c[nH]cn1)C(=O)N[C@@H](C(=O)N[C@H](CC(=O)O)C(N)=O)[C@H](C)O)[C@H](C)CC)[C@H](C)CC [Pr28] (Palmitoyl-[Dap](Palmitoyl)[PEG12][dF][dI][dC][dI][dP][dF][dH][dT][dD]-NH2)
serum iron (C57/B16J mice; [2]): lesser ability to decrease serum iron than Pr27

Compound: CCCCCCCCCCCCCCCC(=O)NCCOCCOCCOCCOCCOCCOCCOCCOCCOCCOCCOCCOCCC(=O)N[C@H](Cc1ccccc1)C(=O)N[C@@H](C(=O)N[C@H](CS)C(=O)N[C@@H](C(=O)N1CCC[C@@H]1C(=O)N[C@H](Cc1ccccc1)C(=O)N[C@H](Cc1c[nH]cn1)C(=O)N[C@@H](C(=O)N[C@H](CC(=O)O)C(N)=O)[C@H](C)O)[C@H](C)CC)[C@H](C)CC [Pr27]
serum iron (C57/B16J mice; i.p., 20 nmoles in PBS, 4 hours): serum iron decrease comparable to that caused by i.p. administration of 20 nmoles Hep25
serum iron (C57/B16J mice; [2]): serum iron decrease similar to that caused by i.p. administration of 20 nmoles Hep25
serum iron (C57/B16J mice; i.p., 200 nmoles in PBS, 4 hours): even greater decrease in serum iron concentrations
serum iron (C57/B16J mice; oral by gavage, 200 nmoles in cremophore EL solution, vs PBS in same formulation): caused a decrease in serum iron in mice

Compound: CC[C@H](C)[C@H](NC(=O)[C@H](CS)NC(=O)[C@@H](NC(=O)[C@@H]1C[C@@H]2CCCC[C@@H]2N1C(=O)[C@@H](NC(=O)[C@H](Cc1c[nH]cn1)NC(=O)[C@@H](NC(=O)[C@@H](N)CC(=O)O)[C@@H](C)O)C(c1ccccc1)c1ccccc1)[C@@H](C)CC)C(=O)N[C@@H](Cc1ccccc1)C(N)=O [Pr44] (H-DTH[Dip][Oic]ICIF-NH2; N-terminus assumed)
DC50 [1]: 30 nM

Compound: CC[C@H](C)[C@H](NC(=O)[C@H](CS)NC(=O)[C@@H](NC(=O)[C@@H]1CCCN1C(=O)[C@@H](NC(=O)[C@H](Cc1c[nH]cn1)NC(=O)[C@@H](NC(=O)[C@@H](N)CC(=O)O)[C@@H](C)O)C(c1ccccc1)c1ccccc1)[C@@H](C)CC)C(=O)N[C@@H](Cc1ccccc1)C(N)=O [F4Dpa] (H-DTH[Dip]PICIF-NH2; N-terminus assumed)
EC50 [1]: 30 nM

Compound: CC[C@H](C)[C@H](NC(=O)[C@@H]1CCCN1C(=O)[C@@H](N)Cc1ccccc1)C(=O)N[C@@H](CS)C(N)=O [Hep4] (H-FPIC-NH2)
DC50 [1]: > 10000 nM

Compound: CC[C@H](C)[C@H](NC(=O)[C@H](CS)NC(=O)[C@@H](NC(=O)[C@@H]1CCCN1C(=O)[C@H](Cc1ccccc1)NC(=O)[C@H](Cc1c[nH]cn1)NC(=O)[C@@H](NC(=O)[C@@H](N)CC(=O)O)[C@@H](C)O)[C@@H](C)CC)C(=O)N[C@@H](Cc1cccc2ccccc12)C(N)=O [F91Nal] (H-DTHFPICI[1Nal]-NH2; N-terminus assumed)
DC50 [1]: 200 nM

Compound: T2A: Hep25 with alanine substitution of residue T2 (DAHFPICIFCCGCCHRSKCGMCCKT)
relative hepcidin activity of substitutions in Hep25 [1]: did not substantially impact hepcidin activity

Compound: CC[C@H](C)[C@H](NC(=O)[C@H](CS)NC(=O)[C@@H](NC(=O)[C@@H]1CCCN1C(=O)[C@H](Cc1ccccc1)NC(=O)[C@H](Cc1c[nH]cn1)NC(=O)[C@@H](NC(=O)[C@@H](N)CC(=O)O)[C@@H](C)O)[C@@H](C)CC)C(=O)N[C@@H](Cc1ccccc1)C(N)=O [Hep9]
serum iron (C57/B16J mice; i.p., 50 μg per mouse in PBS, 4 hours, vs PBS): did not result in a serum iron decrease

Compound: CC[C@H](C)[C@H](NC(=O)[C@H](CS)NC(=O)[C@@H](NC(=O)[C@@H]1CCCN1C(=O)[C@@H](NC(=O)[C@H](Cc1c[nH]cn1)NC(=O)[C@@H](NC(=O)[C@@H](N)CC(=O)O)[C@@H](C)O)C(c1ccccc1)c1ccccc1)[C@@H](C)CC)C(=O)N[C@H](C(N)=O)C(c1ccccc1)c1ccccc1 [Pr39] (H-DTH[Dip]PICI[Dip]-NH2)
EC50 [1]: 35 nM

Compound: DTHFPISIF-NH2 [Hep9-C7S]
DC50 [1]: > 10000 nM

Compound: C[C@@H](O)[C@H](NC(=O)[C@@H](N)CC(=O)O)C(=O)N[C@@H](Cc1c[nH]cn1)C(=O)N[C@H](C(=O)N1CCC[C@H]1C(=O)N[C@H](CCCNC(=N)N)C(=O)N[C@@H](CS)C(=O)N[C@H](CCCNC(=N)N)C(=O)N[C@H](C(N)=O)C(c1ccccc1)c1ccccc1)C(c1ccccc1)c1ccccc1 [Pr43] (H-DTH[Dip]P[dR]C[dR][Dip]-NH2)
EC50 [1]: 200 nM

Compound: C[C@@H](O)[C@H](NC(=O)[C@@H](N)CC(=O)O)C(=O)N[C@@H](Cc1c[nH]cn1)C(=O)N[C@H](C(=O)N1CCC[C@H]1C(=O)N[C@@H](CCCNC(=N)N)C(=O)N[C@@H](CS)C(=O)N[C@@H](CCCNC(=N)N)C(=O)N[C@H](C(N)=O)C(c1ccccc1)c1ccccc1)C(c1ccccc1)c1ccccc1 [Pr42] (H-DTH[Dip]PRCR[Dip]-NH2; N-terminus assumed)
EC50 [1]: 30 nM

Compound: CC[C@H](C)[C@H](NC(=O)[C@H](CS)NC(=O)[C@@H](NC(=O)[C@@H]1C[C@@H]2CCCC[C@@H]2N1C(=O)[C@@H](NC(=O)[C@H](Cc1c[nH]cn1)NC(=O)[C@@H](NC(=O)[C@@H](N)CC(=O)O)[C@@H](C)O)C(c1ccccc1)c1ccccc1)[C@@H](C)CC)C(=O)N[C@H](C(N)=O)C(c1ccccc1)c1ccccc1 [Pr45] (H-DTH[Dip][Oic]ICI[Dip]-NH2; N-terminus assumed)
DC50 [1]: 150 nM

Compound: CC[C@H](C)[C@H](NC(=O)[C@H](CS)NC(=O)[C@@H](NC(=O)[C@@H]1CCCN1C(=O)[C@H](Cc1ccccc1)NC(=O)[C@H](Cc1c[nH]cn1)NC(=O)[C@@H](NC(=O)[C@@H](N)CC(=O)O)[C@@H](C)O)[C@@H](C)CC)C(=O)N[C@H](CC(N)=O)Cc1ccccc1 [F9bhPhe]
DC50 [1]: 150 nM
